Experimental data taken from patent EP0297435A2, “Aminopropanol derivatives of 3-(3'-hydroxyphenyl)-1-propanone, process for their preparation and medicines containing these compounds” (Helopharm W. Petrik GmbH & Co.KG., priority 1987, dated 1989).

Tests used:
[1] = test system: Meerschweinchen-Papillarmuskel; assay: Effect on contraction force of the heart, guinea pig papillary muscle; type: cell-based; settings: contraction force (negative inotropy), read-out: C20 CF
Excerpt: Die Wirkung auf die Kontraktionskraft des Herzens wurde am Meerschweinchen-Papillarmuskel untersucht. Hämodynamische Studien wurden bei gesunden, wie auch akut infarzierten Hunden durchgeführt.

[2] = Acute toxicity LD50 in rats, i.v.; settings: rat, in vivo, iv; Ratte (i.v.); read-out: LD₅₀
[3] = test system: Purkinje-Fasern aus Hundeherzen; assay: Electrophysiological studies on Purkinje fibres from dog hearts (Vmax); type: cell-based, Hund
Excerpt: Die antiarrhythmische Wirksamkeit der erfindungsgemäßen Verbindungen wurde sowohl anhand von elektrophysiologischen Studien an Purkinje-Fasern aus Hundeherzen sowie mit Hilfe von Ouabaininduzierten ventrikulären Tachykardien bei Hunden bestimmt. […]
Als zusätzliches Kriterium wurde der Vorzeitigkeitsindex (Prematurity-Faktor) bestimmt, der die erwünschte Wirksamkeit der erfindungsgemäßen Verbindungen bei vorzeitigen Extrasystolen charakterisiert.

[4] = Acute toxicity LD50 in mice, i.v.; settings: mouse, in vivo, iv; Maus (i.v.); read-out: LD₅₀

**Q.** For CCC(C)(C)NCC(O)COc1cc(CCC(=O)c2ccc(C)cc2)ccc1OC.Cl (stereo not drawn) [Beispiel 36, 1-(4-Methylphenyl)-3-[3′-(2-hydroxy-3-tert.-pentylaminopropoxy)-4′-methoxyphenyl]-1-propanon-hydrochlorid], which IC20 [1] is on record?
**A.** 8 µM

**Q.** What about the LD50 [2] of the same compound?
**A.** 10 mg/kg

**Q.** What about the IC20 ([3]; Purkinje-Fasern aus Hundeherzen, read-out: C20 Vmax) of the same compound?
**A.** 2.8 µM

**Q.** What about the “Prematurity Faktor Vmax” value ([3]; Vorzeitigkeitsindex, activity on premature extrasystoles) of the same compound?
**A.** 0,99

**Q.** What about the “Rate-Faktor von Vmax” value ([3]; specifically stronger activity at higher frequencies) of the same compound?
**A.** 1,41

**Q.** And the LD50 [4]?
**A.** 18 mg/kg
